Assay results from article PMC9143004, “Antioxidant Properties and Aldehyde Reactivity of PD-L1 Targeted Aryl-Pyrazolone Anticancer Agents” (Molecules, 2022).
Several values for one entry are separate records, joined by “and”; a condition that tells them apart may be missing. Equal entries are not always repeated. Where two headings read alike, the source gives them in different places.

Columns and labels:
CTLL-2 cells = experiment: Reactivation of proliferation of CTLL-2 cells; format: cell-based; settings: read-out: Proliferation (IC50): capacity to reactivate proliferation of CTLL-2 cells
PD-L1/PD-1 interaction = PD-L1/PD-1 interaction (Homo sapiens, UniProt Q9NZQ7); experiment: Disruption of the PD-L1/PD-1 interaction in cells, FRET assay; format: cell-based; settings: read-out: Bioactivity (IC50): capacity to disrupt the PD-L1/PD-1 interaction in cells
[1] = DPPH free radical scavenging EPR assay; settings: read-out: DPPH EC50 (concentration reducing the EPR signal by 50%); DPPH 100 μM; test compound 2–90 μM
Method: The antioxidant activity of the compounds was characterized for their free radical scavenging activities using DPPH (100 μM), chosen as a model radical. In this case, we monitor the decay in the DPPH EPR signal intensity which occurs when EPR-silent diamagnetic hydrazine counterparts are formed from DPPH. The first line DPPH signal intensity is then recorded in the presence of increasing amount of the test compound (2–90 μM). Representative dose-dependent variations of the EPR signal are shown in Figure 2a, for compounds EDA, 2 and 4. They all show the characteristic five-line EPR spectrum of DPPH, due to the hyperfine coupling with two equivalent nitrogens, and for which the intensity is proportional to the DPPH concentration, and its decay in the presence of an antioxidant. […] From these curves, the intensity of the EPR signal can be measured and its decay quantified (Figure 2b).
For each compound, the percentage of inhibition of the EPR signal was plotted as a function of the compound concentration, and the fitted curves used to determine EC50 values. The same procedure has been used to evaluate various types of antioxidant compounds [29]. […] In this test, the compounds rank in the order EDA, 2, 3 > 5 > 1 > 4.
(§1) CW-EPR experiments were performed with an X-band Bruker Elexsys E500 spectrometer (Bruker BioSpin GmbH, Rheinstetten, Germany) operating at 9.86 GHz. CW spectra were recorded at room temperature with a microwave power of 5.024–10.02 mW and a modulation amplitude of 1–2 G that assumes non-saturation conditions. The antioxidant activity was monitored using DPPH (1,1-diphenyl-2-picrylhydrazyl) at a final concentration of 100 µM as free radical scavenging molecule and DMPO (5,5-dimethyl-1-pyrroline N-oxide) as spin trap agent for the spin trapping experiments. The DMPO solution was freshly distillated prior to use at a final concentration of 1 mM or 2 mM. The solution mixture was filled into a glass capillary of 50 μL, which was in turn, placed in 4 mm quartz EPR tubes prior to analysis.
(§2) The percent inhibition of DPPH was calculated according to the following equation: I (%) = ((I0 − I)/I0) ∗ 100 where I0 is the area of the EPR spectrum of DPPH (control sample), and I is the area of the EPR spectrum of DPPH with antioxidant compound. The rate constant for the reaction of antioxidant compounds with ^•OCH3 is expressed by the following equation: 1/Ra = 1/Rf + (kr [AH]/(ka [DMPO] × Rf). Rf, and Ra indicate EPR signal area (double integration of EPR signal) of ^•OCH3, DMPO/^•OCH3, respectively. ka and [DMPO] are constants, and a plot of 1/Ra vs. [AH] (concentration of antioxidant compound) gives a straight line with 1/Rf as an intercept and kr/(ka[DMPO] Rf) as the slope. In these circumstances, the rate constant for the reaction of ^•OCH3 with antioxidant compounds (kr) can be expressed by the following equation: kr = (ka [DMPO] × slope)/interception.

[2] = DMPO spin-trapping EPR assay under Fenton conditions in methanol; settings: DMPO 1 or 2 mM, •OCH3 radical
Method: In this case, we monitor the formation of an oxygen centered radical generated in the presence of the spin trapping agent DMPO under Fenton conditions (hydrogen peroxide plus ferrous ions). For practical reasons (compound solubility), experiments were carried out using methanol as a solvent and therefore, the methoxy radical is monitored. A typical six-line EPR signal is recorded, corresponding to the DMPO/^•OCH3 radical, with the characteristic hyperfine coupling constants aN = 13.9 G and aH = 8.3 G. Here again, we can measure the decay of the EPR signal in the presence of the different antioxidant compounds and compare their relative capacity to reduce the signal. Typical concentration-dependent response curves are presented in Figure 3a for compounds EDA, 2 and 4. All six compounds can induce a decrease of the EPR signal but with various degrees of efficacy (Figure 3b). Here again, the results were quantified through the measure of the area of the EPR signal as a function of the compound concentration, to allow the calculation of the reaction constants for each compound. […] Proper dose-response curves were constructed and fitted to determine the reaction rate constant (kr) for each compound, as shown in Figure 3c and the kr values are collated in Table 2.
as §1, §2

recombinant human PD-L1 = recombinant human PD-L1 (Homo sapiens, UniProt Q9NZQ7); experiment: PD-L1 binding by microscale thermophoresis (MST); settings: for Kd: affinity for PD-L1 measured by MST
[3] = Solubility in the aqueous reaction medium; format: physicochemical; settings: methanol:ammonium formate buffer 5 mM pH 4.5 (40:60)
Method: To begin with, each compound was incubated with an equimolar amount of 5fU for 180 min at 37 °C in a mixture of methanol and ammonium formate buffer 5 mM, pH 4.5 (40:60, v:v). […] In each case, the reaction mixture was introduced into the mass spectrometry equipment after a dilution in methanol to achieve a final concentration of 10 pmol/µL. The formation of drug-uracil adducts was monitored and unambiguously characterized by HRMS. […] There was no solubility issue with compound. The lack of reactivity is attributable to its adamantane unit which deactivates the adjacent reactive position or produces a steric hindrance. Otherwise, the other four compounds can react easily with 5fU to generate mono- and bis-adducts, as represented in Figure 4 with compound 2. In all cases, the observed molar mass and ring double bound value (RDB) value for the different species coincide perfectly with the expected mass (Δppm < 5 ppm) and RDB value (Table 3).

Chain of PD-L1/PD-1 interaction (Q9NZQ7 19-290): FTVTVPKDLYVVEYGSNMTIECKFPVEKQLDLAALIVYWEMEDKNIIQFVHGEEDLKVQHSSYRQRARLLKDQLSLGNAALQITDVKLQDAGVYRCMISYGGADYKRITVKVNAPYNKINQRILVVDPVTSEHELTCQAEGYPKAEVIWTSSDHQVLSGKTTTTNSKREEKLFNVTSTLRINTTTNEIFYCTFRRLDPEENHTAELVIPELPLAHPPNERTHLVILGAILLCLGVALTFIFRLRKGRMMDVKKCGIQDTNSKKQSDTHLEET
Chain of recombinant human PD-L1 (Q9NZQ7 19-290): as above

## COc1nc(OCc2cccc(-c3ccccc3)c2C)ccc1CNCCNC(C)=O [BMS-202, reference compound]
CTLL-2 cells; CTLL-2 cells
  IC50: 53 ± 17 nM

## CC1=NN(c2ccccn2)C(=O)C1 [Compound 1]
PD-L1/PD-1 interaction
  IC50: 92 ± 9 nM
CTLL-2 cells; Mus musculus, CTLL-2
  IC50: 102 ± 8 nM
[1]
  EC50: 70600 nM
[2]
  DMPO kr (reaction rate constant): 1.27 10^11 M^−1 s^−1
Recombinant human PD-L1
  Kd: 77 ± 7 nM

## CC1=NN(c2ccc(Cl)cc2Cl)C(=O)C1 [Compound 2]
PD-L1/PD-1 interaction
  IC50: 23 ± 3 nM
CTLL-2 cells; Mus musculus, CTLL-2
  IC50: 53 ± 11 nM
[1]
  EC50: 36500 nM
[2]
  DMPO kr (reaction rate constant): 1.93 10^11 M^−1 s^−1
Recombinant human PD-L1
  Kd: 34 ± 3 nM

## COc1ccccc1C1=NN(c2ccc(Cl)cc2Cl)C(=O)C1 [Compound 3]
CTLL-2 cells; Mus musculus, CTLL-2
  IC50: 79 ± 7 nM
[1]
  EC50: 34000 nM
[2]
  DMPO kr (reaction rate constant): 1.88 10^11 M^−1 s^−1

## O=C1CC(c2ccc(Cl)cc2)=NN1c1ccc(Cl)cc1Cl [Compound 4]
PD-L1/PD-1 interaction
  IC50: 3 ± 2 nM
CTLL-2 cells; Mus musculus, CTLL-2
  IC50: 124 ± 7 nM
[1]
  EC50: 97000 nM and 97600 nM
[2]
  DMPO kr (reaction rate constant): 1.04 10^11 M^−1 s^−1
[3]
  Solubility in the aqueous medium: limited solubility
Recombinant human PD-L1
  Kd: 7 ± 3 nM

## O=C1CC(C23CC4CC(CC(C4)C2)C3)=NN1c1ccccc1Cl [Compound 5]
PD-L1/PD-1 interaction
  IC50: 23 ± 6 nM
CTLL-2 cells; Mus musculus, CTLL-2
  IC50: 57 ± 9 nM
[1]
  EC50: 59700 nM
[2]
  DMPO kr (reaction rate constant): 1.25 10^11 M^−1 s^−1
Recombinant human PD-L1
  Kd: 12 ± 2 nM

## CC1=NN(c2ccccc2)C(=O)C1 [EDA, 1-phenyl-3-methyl-5-pyrazolone, reference compound]
[1]
  EC50: 35800 nM
[2]
  DMPO kr (reaction rate constant): 2.59 10^11 M^−1 s^−1
Recombinant human PD-L1; statement in the discussion
  Activity toward PD-L1: totally inactive

## Nivolumab: reference listed in Table 1; the paper does not describe it further
CTLL-2 cells; CTLL-2 cells
  IC50: 58 ± 3 nM
